# Measured values reported in patent US20260216342A1, “COMPOUNDS FOR NUCLEIC ACID CLEAVAGE” (priority 2023, published 2026).
# How the values were obtained:
# G4-forming RNA oligomer = assay: Degradation of G4-forming RNA oligomer by non-covalent PDS-based degraders; type: biochemical; details: 200 μM, CuSO4/THPTA/NaAsc, 37° C. for 4 h, LC-MS; FIG. 15
# Method: […]. The mixture was heated at 95° C. for 5 minutes, then kept on ice for 30 minutes. CuSO4 (final concentration 200 μM), THPTA (700 μM) and NaAsc (50 mM) were then added, alongside with CBX-PDS, PDS-deg6 or PDS-Amlmi (200 μM). The reaction mixture was incubated at 37° C. for 4 h, quenched with EDTA (final concentration 12 mM) and then kept at 4° C. The reaction mixtures were analysed by LC-MS.
# E. coli ribosome = assay: In vitro degradation of E. coli ribosome (agarose gel); type: biochemical; details: 15 mM to 0.47 mM, 18 hours at 37° C.
# Method: The degradation activity was measured in an in vitro assay, targeting the E. coli ribosome. 200 μM […] were incubated with degrader in different concentration, ranging from 15 mM to 0.47 mM, for 18 hours at 37° C. Evaluation was made by agarose gel analysis.
# SARS-CoV-2 [1] = assay: Virucidal activity on cell free virions; details: 6 μM, 1 h at 37° C., 1000 PFU, plaque assay
# [2] = tested on: RNA extracted from SARS-CoV-2; assay: Gel electrophoresis of SARS-CoV-2 RNA after degrader incubation; type: biochemical; details: 100 μM, 2 h at 37° C.; FIG. 5f
# SARS-CoV-2 [3] = assay: Viral plaque-forming units by plaque assay; type: cell-based; details: supernatants of cultures treated with 6 mM for 24 h, vs vehicle control
# SARS-CoV-2 [4] = type: cell-based; details: Vero CCL-81, MOI 0.05, 24 h
# SARS-CoV-2 [5] = type: in vivo, K18-hACE2 transgenic mice; details: 10 mg/kg intranasally 1 hour pre-infection and 3 hours post-infection, day 5, plaque assay
# [6] = tested on: RNA 69-er corresponding to the coronaviral pseudoknot; type: biochemical; details: 1 mM, 3 h incubation at 37° C.
compound,measurement,setting,value
CN(C)Cc1nccn1CCOCCOCCOCCOCCOCCn1cc(COc2cc(C(=O)Nc3cc(OCCN)c4ccccc4n3)nc(C(=O)Nc3cc(OCCN)c4ccccc4n3)c2)nn1 [PDS-Amimi],degrader potency on G4-forming RNA oligomer,G4-forming RNA oligomer,more potent degrader than PDS-deg6
chloramphenicol-2PEG-imidazole degrader [18b],ribosome degradation,E. coli ribosome,ribosome degradation could be observed at a concentration of 15 mM
chloramphenicol-6PEG-imidazole degrader [18a],ribosome degradation,E. coli ribosome,no degradation visible
"O=C(N[C@H](CO)[C@H](O)c1ccc([N+](=O)[O-])cc1)C(Cl)Cl [chloramphenicol, Chloramphenicol]",ribosome degradation,E. coli ribosome,no degradation
chloramphenicol-ethyl-imidazole degrader [18c],ribosome degradation,E. coli ribosome,no degradation visible
CCOC(=O)c1ccccc1NC(=O)N1CCCN(Cc2csc(C)n2)CC1 [MTDB],virucidal effect on cell free virus,SARS-CoV-2 [1],no virucidal effect was observed
same,degradation of full-length coronaviral RNA on agarose gel,[2],the two control molecules do not
same,number of viral plaques,SARS-CoV-2 [3],only showed decreased number of viral plaques when added before infection
same,antiviral effect (coronaviral RNA in cells),SARS-CoV-2 [4]; added before or after infection,did not exhibit an antiviral effect
same,50% inhibitory concentration (IC50),SARS-CoV-2 [4]; drug added 1 h before or 1 h after infection,did not inhibit viral replication and thus IC50 values could not be determined
same,lung viral load,SARS-CoV-2 [5],No differences in lung viral load
same,degradation of RNA pseudoknot,[6],no degradation
